Data as given in US11845938B2, “Aptamer compositions and the use thereof” (City of Hope, priority 2016, dated 2023).
Entries after “also recorded” stand apart in the source; their conditions may differ.

B1: P1: RNA aptamer SEQ ID NO: 1, mHSP70 binding aptamer internalizing upon binding mHSP70 at the cell surface (nucleic acid)
chain: GGGAGACAAGAAUAAACGCUCAAUGCGCUGAAUGCCCAGCCGUGAAAGCGUCGAUUUCCAUCCUUCGACAGGAGGCUCACAACAGGC
modifications: listed as RNA, chemistry not fully specified

Assays:
[1] = bypassing dCK deficiency, reference [5]; cited from earlier work
[2] = system: PANC-1 cells; experiment: Flow cytometry-based binding assay, apparent dissociation constant (KD) of Cy3-labeled aptamers; conditions: flow cytometry MFI, one-site binding model, read-out: binding affinity (dissociation constant, KD)
Protocol: FIGS. 1A-1D. ApDCs of gemcitabine and 5-FU. (FIG. 1A) Chemical structure of gemcitabine and 5-FU prodrug (5F-dUTP). (FIG. 1B) The sequence of P19 incorporated with dFdCMP (dFdCTP) (SEQ ID NO: 18) and 5FdUMP (5FdUTP) (SEQ ID NO: 19) into P19, instead of 2′F-CTP and 2′F-UTP. (FIG. 1C) Intrinsic incorporation of active metabolites of gemcitabine (dFdCMP) and 5FdUMP in P19. M: Marker. 1:P19, 2: P19-dFdCMP, 3:P19-5FdUMP. (FIG. 1D) The dissociation constant (KD) was measured by flow cytometry using increasing concentrations of Cy3-labeled aptamers (from 15.6 to 1000 nM). Mean fluorescence intensity (MFI) was measured and calculated using a one-site binding model for non-linear regression.
FIGS. 4A-4C. […] Mean fluorescence intensity (MFI) was measured and calculated using a one-site binding model for non-linear regression. […] (FIG. 4B) The pancreatic cell lines PANC-1 and AsPC-1 were treated with 200 nM of the Cy3-labeled tP19 aptamer and analyzed by confocal microscopy. […]
Aptamer binding and uptake was also assessed by flow cytometry. […] Cells were washed with binding buffer and immediately analyzed by Fortessa flow cytometry (BD). […] The data were analyzed with FlowJo software.
To determine the apparent dissociation constant (KD) of aptamers to PANC-1 cells, the mean fluorescence intensity (MFI) was calculated for each concentration and for the unselected library controls. […]

[3] = system: PANC-1 cells; experiment: Live-cell confocal imaging, aptamer internalization; type: cell-based; conditions: Cy3-labeled RNAs at 200 nM, 2 hour, confocal microscopy
Protocol: FIGS. 2A-2D. Cell proliferation assay of dFdC-P19-ApDC and 5FdU-P19-ApDC. (FIGS. 2A-2B) The pancreatic cell lines PANC-1 were treated with 200 nM of the Cy3-labeled dFdCMP-P19-ApDC (FIG. 2A) or 5FdUMP-P19-ApDC (FIG. 2B) and analyzed by confocal microscopy. […] Dyes: Cy3 labeled RNAs, Hoechst 33342. Scale bar: […]. (FIG. 2C) After treatment dFdCMP-P19-ApDC or 5FdUMP-P19-ApDC in PANC-1 cells for 72 hrs, cell viability was measured by MTT assay. One-way ANOVA test: ****≤0.0001, ***≤0.001. (FIG. 2D) After treatment dFdCMP-P19-ApDC or 5FdUMP-P19-ApDC in chemo-resistance AsPC-1 cells for 72 hrs, cell viability was measured by MTT assay. One-way ANOVA test: ****≤0.0001, ***≤0.001
(§1) FIGS. 4A-4C. Binding affinity and cell internalization of truncated P19 (tP19). (FIG. 4A) The dissociation constant (KD) was measured by flow cytometry using increasing concentrations of Cy3-labeled aptamers (from 15.6 to 500 nM). Mean fluorescence intensity (MFI) was measured and calculated using a one-site binding model for non-linear regression. […] (FIG. 4B) The pancreatic cell lines PANC-1 and AsPC-1 were treated with 200 nM of the Cy3-labeled tP19 aptamer and analyzed by confocal microscopy. […] (FIG. 4C) Non pancreatic lines including Huh7, HepG2, MCF7 and PC3 cells were also treated with 200 nM of Cy3-labeled tP19 and P1 aptamers. […] Dye Hoechst 33342. Scale bar: 10 μm.
FIGS. 5A-5D. […]

[4] = system: AsPC-1 cells; experiment: as above; type: cell-based; conditions: 200 nM Cy3-labeled aptamer, confocal microscopy
Protocol: as §1
(§2) For the aptamer internalization studies, 1×10^5 cells were seeded in 35 mm glass-bottom dishes (MatTek, Ashland, Mass., USA) and grown in medium for 24 hrs. The RNAs were labeled with Cy3 using the Cy3 Silencer siRNA labeling kit (Ambion, Tex., USA.). Cy3-labeled RNAs were added to the cells at 200 nM or 500 nM and incubated for 2 hour. The images were taken using a Zeiss LSM 510 Meta Inverted 2 photon confocal microscope system using a C-Apo 40x/1.2NA water immersion objective.

[5] = system: Huh7, HepG2, MCF7 and PC3 cells; experiment: Live-cell confocal imaging, aptamer internalization in non pancreatic lines; type: cell-based; conditions: 200 nM Cy3-labeled aptamer
Protocol: as §1, §2

Molecule	effectiveness relative to dFdC [1]	Kd [2]	internalization into PANC-1 cells [3]	internalization into AsPC-1 cells [4]	internalization (Cy3 signal) in non-pancreatic cancer cell lines [5]
gemcitabine monophosphate [dFdCMP]	4 fold				
tP19: truncated form of aptamer P19, SEQ ID NO: 3, 28 bps in length, mHSP70 binding aptamer (CUCAAUGGCGAAUGCCCGCCUAAUAGGG; listed as RNA, chemistry not fully specified)		8.57 nM	internalized into PANC-1 and AsPC-1 cells	internalized into PANC-1 and AsPC-1 cells	No Cy3 signal was observed; also recorded: not in non-pancreatic cancer cell lines
B1					No Cy3 signal was observed
